Experiments:
Experiment in all cases: ITC
[1] = tested on: aptananozyme I: 5'-amino-DBA (1) on Cu2+ C-dots (DNA, aptamer) CGACGCCAGTTTGAAGGTTCGTTCGCAGGTGTGGAGTGACGTCG; conditions: 100 mM NaCl, 5 mM MgCl2, 5 mM MES, pH 5.5; for Kd: printed as 'the aptamer', methods: aptananozyme
[2] = tested on: aptananozyme X: 5'-amino-TBA (6) on Cu2+ C-dots (DNA, aptamer) TGTGGTGTGTGAGTGCGGTGCCC; conditions: 100 mM NaCl, 5 mM MgCl2, 50 mM phosphate, pH 7.2, Figure S16 legend: 50 mM NaCl, 10 mM MgCl2
[3] = tested on: aptananozyme XI: 3'-amino-TBA (7) on Cu2+ C-dots (DNA, aptamer) TGTGGTGTGTGAGTGCGGTGCCC; conditions: 100 mM NaCl, 5 mM MgCl2, 50 mM phosphate, pH 7.2, Figure S16 legend: 50 mM NaCl, 10 mM MgCl2
[4] = tested on: aptananozyme XII: 5'-amino-(TGTA)-TBA (8) on Cu2+ C-dots (DNA, aptamer) TGTATGTGGTGTGTGAGTGCGGTGCCC; conditions: 100 mM NaCl, 5 mM MgCl2, 50 mM phosphate, pH 7.2, Figure S16 legend: 50 mM NaCl, 10 mM MgCl2
[5] = tested on: aptananozyme XIII: 5'-amino-(TGTA)2-TBA (9) on Cu2+ C-dots (DNA, aptamer) TGTATGTATGTGGTGTGTGAGTGCGGTGCCC; conditions: 100 mM NaCl, 5 mM MgCl2, 50 mM phosphate, pH 7.2, Figure S16 legend: 50 mM NaCl, 10 mM MgCl2
[6] = tested on: aptananozyme XIV: 5'-amino-(TGTA)3-TBA (10) on Cu2+ C-dots (DNA, aptamer) TGTATGTATGTATGTGGTGTGTGAGTGCGGTGCCC; conditions: 100 mM NaCl, 5 mM MgCl2, 50 mM phosphate, pH 7.2, Figure S16 legend: 50 mM NaCl, 10 mM MgCl2
[7] = tested on: aptananozyme II: 3'-amino-DBA (2) on Cu2+ C-dots (DNA, aptamer) CGACGCCAGTTTGAAGGTTCGTTCGCAGGTGTGGAGTGACGTCG; conditions: 100 mM NaCl, 5 mM MgCl2, 5 mM MES, pH 5.5
[8] = tested on: aptananozyme III: 5'-amino-(TGTA)-DBA (3) on Cu2+ C-dots (DNA, aptamer) TGTACGACGCCAGTTTGAAGGTTCGTTCGCAGGTGTGGAGTGACGTCG; conditions: 100 mM NaCl, 5 mM MgCl2, 5 mM MES, pH 5.5
[9] = tested on: aptananozyme IV: 5'-amino-(TGTA)2-DBA (4) on Cu2+ C-dots (DNA, aptamer) TGTATGTACGACGCCAGTTTGAAGGTTCGTTCGCAGGTGTGGAGTGACGTCG; conditions: 100 mM NaCl, 5 mM MgCl2, 5 mM MES, pH 5.5
[10] = tested on: aptananozyme V: 5'-amino-(TGTA)3-DBA (5) on Cu2+ C-dots (DNA, aptamer) TGTATGTATGTACGACGCCAGTTTGAAGGTTCGTTCGCAGGTGTGGAGTGACGTCG; conditions: 100 mM NaCl, 5 mM MgCl2, 5 mM MES, pH 5.5

For N[C@@H](Cc1ccc(O)c(O)c1)C(=O)O, the Kd [1] was 1.7 ± 0.4 µM.

NC(=O)[C@@H](N)Cc1ccc(O)cc1 was tested, and the Kd [2] was 0.83 ± 0.01 µM, the Kd [3] was 1.24 ± 0.05 µM and the binding [4] was “yes”. The binding [5] was “yes” and the Kd [6] was 1.4 ± 0.1 µM.

In the case of NCCc1ccc(O)c(O)c1, the binding ([1]; aptamer on Cu2+ C-dots) is reported as “yes”, the binding [7] is reported as “yes” and the binding [8] is reported as “yes”. The binding [9] was “yes” and the Kd [10] was 3.9 ± 0.2 µM.

Work on N[C@H](Cc1ccc(O)c(O)c1)C(=O)O yielded a Kd [1] of 6.6 ± 1 µM.
